From patent EP4818158A1, “BIARYL COMPOUND” (Kissei Pharmaceutical Co., Ltd., priority 2023, dated 2025)
Where two headings read alike, the source gives them in different places.

What was measured:
human TSHR = target: T1, human TSHR (Homo sapiens, UniProt P16473); assay: Antagonist activity using TSH-induced cAMP generation in human TSHR-stably expressing CHO cells; format: cell-based; settings: human TSH 50 ng/mL
T1 construct: expressed in transfected cells
Outline: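 Stable human TSHR CHO cells in HBSS/20 mM HEPES/1 mM IBMX were preincubated with compound 15 min at room temperature, then stimulated with human TSH (final 50 ng/mL) 1 h at 37°C. cAMP was read by HTRF (665/620 nm) against a standard curve; IC50 from cAMP generation as % of control.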

TSHR = target: T2, TSHR (Mus musculus, UniProt P47750); settings: cited from earlier work
T2 construct: host or cells: mice in vivo (endogenous thyroid TSHR)
T2 sequence (P47750 22-764): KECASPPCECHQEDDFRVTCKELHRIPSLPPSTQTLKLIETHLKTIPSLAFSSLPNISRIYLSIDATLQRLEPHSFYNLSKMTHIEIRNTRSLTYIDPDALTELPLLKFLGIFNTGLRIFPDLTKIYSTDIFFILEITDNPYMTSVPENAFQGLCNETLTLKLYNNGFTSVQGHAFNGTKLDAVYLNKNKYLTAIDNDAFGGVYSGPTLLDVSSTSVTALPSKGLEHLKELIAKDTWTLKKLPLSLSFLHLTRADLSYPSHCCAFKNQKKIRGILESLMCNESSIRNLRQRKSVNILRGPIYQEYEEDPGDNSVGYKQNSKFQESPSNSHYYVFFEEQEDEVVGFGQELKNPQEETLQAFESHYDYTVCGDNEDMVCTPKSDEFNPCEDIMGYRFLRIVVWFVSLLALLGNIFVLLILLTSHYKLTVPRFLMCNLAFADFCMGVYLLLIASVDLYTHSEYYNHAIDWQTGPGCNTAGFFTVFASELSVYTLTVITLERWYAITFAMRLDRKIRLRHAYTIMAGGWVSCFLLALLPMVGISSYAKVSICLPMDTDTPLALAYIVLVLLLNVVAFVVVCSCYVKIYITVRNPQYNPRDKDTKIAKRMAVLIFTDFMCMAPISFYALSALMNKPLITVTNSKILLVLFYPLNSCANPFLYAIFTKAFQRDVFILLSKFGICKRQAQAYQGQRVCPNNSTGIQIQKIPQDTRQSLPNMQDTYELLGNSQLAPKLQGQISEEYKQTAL

T1 sequence (P16473 21-764): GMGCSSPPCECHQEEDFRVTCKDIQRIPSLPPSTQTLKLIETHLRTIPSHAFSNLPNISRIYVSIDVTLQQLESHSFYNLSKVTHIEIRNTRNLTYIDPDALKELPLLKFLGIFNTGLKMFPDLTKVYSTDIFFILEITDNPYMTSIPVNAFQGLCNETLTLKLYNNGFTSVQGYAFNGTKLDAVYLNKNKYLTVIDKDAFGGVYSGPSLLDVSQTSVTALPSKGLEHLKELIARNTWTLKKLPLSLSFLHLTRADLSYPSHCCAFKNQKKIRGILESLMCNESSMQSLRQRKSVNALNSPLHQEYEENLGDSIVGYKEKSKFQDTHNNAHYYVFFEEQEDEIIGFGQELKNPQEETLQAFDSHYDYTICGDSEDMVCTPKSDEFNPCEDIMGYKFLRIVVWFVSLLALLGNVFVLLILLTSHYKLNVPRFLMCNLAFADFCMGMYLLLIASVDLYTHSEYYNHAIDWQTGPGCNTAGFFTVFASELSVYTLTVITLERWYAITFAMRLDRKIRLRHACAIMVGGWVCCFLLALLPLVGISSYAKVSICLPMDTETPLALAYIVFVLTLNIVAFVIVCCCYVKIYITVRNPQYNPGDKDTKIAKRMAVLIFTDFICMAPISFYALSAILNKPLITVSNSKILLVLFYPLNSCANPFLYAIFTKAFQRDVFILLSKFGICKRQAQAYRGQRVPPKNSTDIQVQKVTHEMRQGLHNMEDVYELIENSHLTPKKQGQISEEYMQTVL

NC(=O)NCc1ncccc1-c1ccc(NC(=O)NC2CCCC2)c(F)c1Cc1ccccc1F [Example G-8, 1-Cyclopentyl-3-(2-fluoro-3-(2-fluorobenzyl)-4-(2-(ureidomethyl)pyridin-3-yl)phenyl)urea]
IC50 (human TSHR): < 0.3 µM

CON(C(=O)Nc1ccc(-c2cccnc2CNC(N)=O)c(Cc2ccccc2F)c1F)C1CCCC1 [Example G-9, 1-Cyclopentyl-3-(2-fluoro-3-(2-fluorobenzyl)-4-(2-(ureidomethyl)pyridin-3-yl)phenyl)-1-methoxyurea]
IC50 (human TSHR): 0.3 to 30 µM

CC(C)(C)OC(=O)Nc1ccc(-c2nccnc2CCC(N)=O)c(Cc2ccccc2)c1F [Example H-1, tert-Butyl (4-(3-(3-amino-3-oxopropyl)pyrazin-2-yl)-3-benzyl-2-fluorophenyl)carbamate]
IC50 (human TSHR): 0.3 to 30 µM

COc1ccc(C2Nc3ccccc3C(=O)N2Cc2ccco2)cc1COc1c(C)cc(NC(C)=O)cc1C (centres unmarked) [NCGC00242364]
blood T4 concentration (TSHR; TSH-releasing hormone (TRH)-treated mice): blood T4 concentration lowering effect
blood T4 concentration (TSHR; thyroid stimulating antibody M22-treated mice): blood T4 concentration lowering effect
